Where a name gives a salt, the structure may show the parent alone.
Assays:
[1] = molecular target: T1, IDH1^R132H homodimer enzyme (Homo sapiens, UniProt O75874, R132H); assay: NADPH depletion assay, IDH1 R132H; format: biochemical
T1 construct: purchased not specified
Experimental: (§1) IDH mutated enzyme activity converting alpha-ketoglutarate to 2-hydroxyglutaric acid is measured using a NADPH depletion assay. In the assay the remaining cofactor is measured at the end of the reaction with the addition of a catalytic excess of diaphorase and resazurin, to generate a fluorescent signal in proportion to the amount of NADPH remaining. IDH1 WT enzyme as well as mutated isoforms IDH1^R132H, IDH1^R132C, and IDH^2R172K enzymes are commercially available proteins (see e.g. Sino Biological, Abcam, Active Motif or Creative BioMart).
(§2) IDH1^R132H homodimer enzyme are diluted to 8 nM, in 10 μL of Assay Buffer (150 mM NaCl, 50 mM Tris-HCl pH 7.6, 10 mM MgCl2, 0.001% Triton X-100, 4 mM β-mercaptoethanol); 0.2 uL of test compound, previously serially diluted 1 to 3, >10 experimental points from 1 mM in DMSO, is added and the mixture is incubated for 15 minutes at room temperature. The reaction is started with the addition of 10 μL of Substrate Mix (12 uM NADPH, 3.4 mM alpha-ketoglutarate in Assay Buffer) and the mixture is incubated for 60 minutes at room temperature. The reaction is terminated with the addition of 5 μl of Detection Buffer (100 μg/mL diaphorase, 30 μM resazurin, in IX Assay Buffer), and is incubated for 15 minute before reading on a ViewLux as platereader at Ex544/Em590.

IDH1^R132C = molecular target: T2, IDH1^R132C (Homo sapiens, UniProt O75874, R132C); assay: NADPH depletion assay, IDH1 R132C; format: biochemical
T2 construct: purchased not specified
Experimental: as §1, §2
Compounds are assayed for their activity against IDH1^R132C following the same assay as above with the following modifications: IDH1^R132C and alpha-ketoglutarate final concentrations in the Assay Buffer is 2 nM and 0.14 mM, respectively.

T2 sequence (O75874 whole entry R132C): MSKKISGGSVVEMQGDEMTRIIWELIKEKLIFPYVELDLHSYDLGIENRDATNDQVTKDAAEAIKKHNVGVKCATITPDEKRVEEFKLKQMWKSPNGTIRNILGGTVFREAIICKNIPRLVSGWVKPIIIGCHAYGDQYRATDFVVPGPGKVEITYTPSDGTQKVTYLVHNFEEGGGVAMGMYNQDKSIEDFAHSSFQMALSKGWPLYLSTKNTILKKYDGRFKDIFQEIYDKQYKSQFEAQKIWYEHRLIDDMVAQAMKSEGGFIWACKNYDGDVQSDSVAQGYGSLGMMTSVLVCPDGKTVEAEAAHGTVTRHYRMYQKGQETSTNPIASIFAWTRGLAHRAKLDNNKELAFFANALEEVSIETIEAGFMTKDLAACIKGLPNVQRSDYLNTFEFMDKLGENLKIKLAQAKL
T1 sequence (O75874 whole entry R132H): as the sequence (O75874 whole entry R132C) above, with C132H counted along it

SMILES | IC50 [1] [nM] | IC50 (IDH1^R132C) [nM]
CC(C)[C@H](C)n1c(=O)ccc2cnc(N[C@@H](C)c3ccc(C4=CCN(C(=O)OC(C)(C)C)CC4)cn3)nc21 [cpd 193, tert-butyl 6-[(1S)-1-({8-[(2S)-3-methylbutan-2-yl]-7-oxo-7,8-dihydropyrido[2,3-d]pyrimidin-2-yl}amino)ethyl]-3′,6′-dihydro-3,4′-bipyridine-1′(2′H)-carboxylate] | 126 | 89
CC(C)[C@H](C)n1c(=O)ccc2cnc(N[C@@H](C)c3ccc(N4CCN(C(=O)OCc5ccccc5)CC4)cc3)nc21 [cpd 174, Benzyl-4-{4-[(1S)-1-({8-[(2S)-3-methylbutan-2-yl]-7-oxo-7,8-dihydropyrido[2,3-d]pyrimidin-2-yl}amino)ethyl]phenyl}piperazine-1-carboxylate] | 42 | 32
C[C@H](Nc1ncc2ccc(=O)n(CC(C)(C)C)c2n1)c1ccc(C(=O)NC2CC(F)(F)C2)cc1 [cpd 85, N-(3,3-difluorocyclobutyl)-4-[(1S)-1-{[8-(2,2-dimethylpropyl)-7-oxo-pyrido[2,3-d]pyrimidin-2-yl]amino}ethyl]benzamide] | 1770 | 1460
C[C@H](Nc1ncc2ccc(=O)n(CC(C)(C)O)c2n1)c1ccc(CN2CCC(F)(F)CC2)cc1 [cpd 119, 2-{(S)-1-[4-(4,4-Difluoro-piperidin-1-ylmethyl)-phenyl]-ethylamino}-8-(2-hydroxy-2-methyl-propyl)-8H-pyrido [2,3-d]pyrimidin-7-one] | 2230 | 1160
Cc1nc(N[C@@H](C)c2ccc(CN3CCC(F)(F)CC3)cc2)nc2c1ccc(=O)n2CC(C)C [cpd 118] | 1300 | 923
C[C@H](Nc1ncc2ccc(=O)n(Cc3ccc(F)cc3C(F)(F)F)c2n1)c1ccc(CN2CCC(F)(F)CC2)cc1 [cpd 115, 2-{[(1S)-1-{4-[(4,4-difluoropiperidin-1-yl)methyl]phenyl}ethyl]amino}-8-[4-fluoro-2-(trifluoromethyl)benzyl]pyrido[2,3-d]pyrimidin-7(8H)-one] | 672 | 825
CC(C)C(=O)N1CCC(Oc2ccc([C@H](C)Nc3ncc4ccc(=O)n([C@@H](C)C(C)C)c4n3)cc2)CC1 [cpd 160, 8-((S)-1,2-Dimethyl-propyl)-2-{(S)-1-[4-(1-isobutyryl-piperidin-4-yloxy)-phenyl]-ethylamino}-8H-pyrido[2,3-d]pyrimidin-7-one] | 68 | 31
C[C@@H]1CN(Cc2ccc([C@H](C)Nc3ncc4ccc(=O)n([C@@H](C)C5CC5)c4n3)cc2F)C[C@H](C)O1 [cpd 171, 8-[(1S)-1-cyclopropylethyl]-2-{[(1S)-1-(4-{[(2R,6S)-2,6-dimethylmorpholin-4-yl]methyl}-3-fluorophenyl)ethyl]amino}pyrido[2,3-d]pyrimidin-7(8H)-one] | 169 | 55
CC(C)(C)Cn1c(=O)ccc2cnc(NC3(c4ccccc4)CCC3)nc21 [cpd 43, 8-(2,2-dimethylpropyl)-2-[(1-phenylcyclobutyl)amino]pyrido[2,3-d]pyrimidin-7(8H)-one] | 1640 | 1050
C[C@H](Nc1ncc2ccc(=O)n(CC(C)(C)C)c2n1)c1ccccc1 [cpd 40, 8-(2,2-dimethylpropyl)-2-{[(1S)-1-phenylethyl]amino}pyrido[2,3-d]pyrimidin-7(8H)-one] | 160 | 71
C[C@H](Nc1ncc2ccc(=O)n(Cc3c(F)cccc3F)c2n1)c1ccc(C(=O)NC2CCN(C)CC2)cc1 [cpd 76, 4-[(1S)-1-{[8-(2,6-difluorobenzyl)-7-oxo-pyrido[2,3-d]pyrimidin-2-yl]amino}ethyl]-N-(1-methylpiperidin-4-yl)benzamide] | 2380 | 3630
CC(Nc1ncc2ccc(=O)n(CCF)c2n1)c1ccc(CN2CCC(F)(F)CC2)cc1 (stereo not drawn) [cpd 100, 2-[(1-{4-[(4,4-difluoropiperidin-1-yl)methyl]phenyl}ethyl)amino]-8-(2-fluoroethyl)pyrido[2,3-d]pyrimidin-7(8H)-one] | 3060 | 1590
C[C@H](Nc1ncc2cc(F)c(=O)n(CC(C)(C)C)c2n1)c1ccccc1 [cpd 47, 8-(2,2-Dimethyl-propyl)-6-fluoro-2-((S)-1-phenyl-ethylamino)-8H-pyrido[2,3-d]pyrimidin-7-one] | 1810 | 597
C[C@H](Nc1ncc2ccc(=O)n(CC(F)(F)F)c2n1)c1ccc(Cl)cc1 [cpd 18, 2-{[(1S)-1-(4-chlorophenyl)ethyl]amino}-8-(2,2,2-trifluoroethyl)pyrido[2,3-d]pyrimidin-7(8H)-one] | 4070 | 1550
C[C@H](Nc1ncc2ccc(=O)n(CC(C)(C)C)c2n1)c1ccc(S(C)(=O)=O)cc1 [cpd 137, 8-(2,2-dimethylpropyl)-2-({(1S)-1-[4-(methylsulfonyl)phenyl]ethyl}amino)pyrido[2,3-d]pyrimidin-7(8H)-one] | 3470 | 1300
C[C@H](Nc1ncc2ccc(=O)n(CC3(C)COC3)c2n1)c1ccc2ccccc2c1 [cpd 45, 8-[(3-methyloxetan-3-yl)methyl]-2-{[(1S)-1-(naphthalen-2-yl)ethyl]amino}pyrido[2,3-d]pyrimidin-7(8H)-one] | 554 | 206
CC(Nc1ncc2ccc(=O)n(CC(C)(C)C)c2n1)c1ccc(C(=O)NC2CCC(F)(F)CC2)c(F)c1 (stereo not drawn) [cpd 84, N-(4,4-difluorocyclohexyl)-4-(1-{[8-(2,2-dimethylpropyl)-7-oxo-pyrido[2,3-d]pyrimidin-2-yl]amino}ethyl)-2-fluorobenzamide] | 190 | 150
COC(=O)c1ccc([C@H](C)Nc2ncc3ccc(=O)n(Cc4cc(F)cc(F)c4)c3n2)cc1 [cpd 7, methyl 4-[(1S)-1-{[8-(3,5-difluorobenzyl)-7-oxo-pyrido[2,3-d]pyrimidin-2-yl]amino}ethyl]benzoate] | 2960 | 1410
Cc1cc(=O)n(CC(C)(C)C)c2nc(N[C@@H](C)c3ccc(CN4CCCC(F)(F)C4)cc3)ncc12 [cpd 60, 2-{(S)-1-[4-(3,3-Difluoro-piperidin-1-ylmethyl)-phenyl]-ethylamino}-8-(2,2-dimethyl-propyl)-5-methyl-8H-pyrido [2,3-d]pyrimidin-7-one] | 341 | 139
COc1ccc(Cn2c(=O)ccc3cnc(N[C@@H](C)c4ccc(Cl)cc4)nc32)cc1 [cpd 21, 2-{[(1S)-1-(4-chlorophenyl)ethyl]amino}-8-(4-methoxybenzyl)pyrido[2,3-d]pyrimidin-7(8H)-one] | 2490 | 586
CC(Nc1ncc2ccc(=O)n(CC(C)(C)C)c2n1)C12CC3CC(CC(C3)C1)C2 (stereo not drawn) [cpd 44, 8-(2,2-dimethylpropyl)-2-{[1-(tricyclo[3.3.1.1^3,7]dec-1-yl)ethyl]amino}pyrido[2,3-d]pyrimidin-7(8H)-one] | 1090 | 811
C[C@H](Nc1ncc2ccc(=O)n(CC(C)(C)C)c2n1)c1nc(-c2ccc(Cl)cc2)no1 [cpd 52, 2-({(1S)-1-[3-(4-chlorophenyl)-1,2,4-oxadiazol-5-yl]ethyl}amino)-8-(2,2-dimethylpropyl)pyrido[2,3-d]pyrimidin-7(8H)-one] | 1760 | 786
C[C@H](Nc1ncc2ccc(=O)n(CC(C)(C)C)c2n1)c1ccc(-c2ccncc2)cc1 [cpd 131, 8-(2,2-dimethylpropyl)-2-({(1S)-1-[4-(pyridin-4-yl)phenyl]ethyl}amino)pyrido[2,3-d]pyrimidin-7(8H)-one] | 284 | 170
C[C@H](Nc1ncc2ccc(=O)n(Cc3ccccc3)c2n1)c1nc(-c2ccc(Cl)cc2)no1 [cpd 53, 8-benzyl-2-({(1S)-1-[3-(4-chlorophenyl)-1,2,4-oxadiazol-5-yl]ethyl}amino)pyrido[2,3-d]pyrimidin-7(8H)-one] | 941 | 529
C[C@H](Nc1ncc2ccc(=O)n(CC(C)(C)C)c2n1)c1ccc(CN2CCNCC2)cc1 [cpd 138, 8-(2,2-Dimethyl-propyl)-2-[(S)-1-(4-piperazin-1-ylmethyl-phenyl)-ethylamino]-8H-pyrido[2,3-d]pyrimidin-7-one hydrochloride] | 2260 | 777
C[C@H](Nc1ncc2ccc(=O)n(CC(C)(C)C)c2n1)c1ccc(C(=O)NC2CCCCC2)cc1 [cpd 81, N-cyclohexyl-4-[(1S)-1-{[8-(2,2-dimethylpropyl)-7-oxo-pyrido[2,3-d]pyrimidin-2-yl]amino}ethyl] benzamide] | 288 | 172
CC(C)[C@H](C)n1c(=O)ccc2cnc(N[C@@H](C)c3ccc(-c4ccnc(F)c4)cn3)nc21 [cpd 197, 2-{[(1S)-1-(2′-fluoro-3,4′-bipyridin-6-yl)ethyl]amino}-8-[(2S)-3-methylbutan-2-yl]pyrido[2,3-d]pyrimidin-7(8H)-one] | 2340 | 405
